Results taken from PMC8956739, “A synthetic lipopeptide targeting top-priority multidrug-resistant Gram-negative pathogens” (Nature Communications, 2022).
Converted amounts (≈) assume the structure as drawn. “And” between values parts separate entries of the source, which are not always exact repeats. Identical values can stand only once. Like-named read-outs stand apart in the source and are kept apart here. Residues, ends and D or L forms follow the SMILES beside them.

Key:
[1] = system: A. baumannii FADDI-AB156; test: Neutropenic mouse pneumonia model, polymyxin-resistant isolate; type: in vivo; details: for Tukey HSD diff, Pre-treatment minus treated group (Log10 CFU/lung) / Tukey HSD diff, Vehicle minus treated group (Log10 CFU/lung): Fig. e; for Log10 CFU/lung: Figure 3e, individual mice
Experimental: (§1) The experimental methodology for the neutropenic mouse lung infection model was previously described in detail. Briefly, Swiss mice (female, 7-week-old, 22–28 g) were rendered neutropenic by intraperitoneal administration of cyclophosphamide, 4 days (150 mg/kg) and 1 day (100 mg/kg) prior to inoculation. Lung infection was established by the administration of 25 µL of early log-phase bacterial suspension (polymyxin-susceptible or resistant isolate, 4 × 10^7 CFU/mL), directly into the lungs via the trachea using a MicroSprayer™ device. Lipopeptide solutions were prepared in sterile saline. At 2 h after inoculation, mice (n = 3 or 4) were administered lipopeptide (45–240 mg/kg/d free base) or control (sterile saline) via an intraperitoneal or subcutaneous bolus injection in three divided doses every 8 h. At 0 or 24 h after the administration of lipopeptide solution or saline (control), animals were euthanized and lungs were collected and homogenized under sterile conditions. Homogenate was filtered and the filtrate was collected, serially diluted in sterile saline, and spread on nutrient agar plates. Agar plates were incubated at 37 °C overnight for bacterial colony counting and the bacterial load of the lung (log10 CFU/lung) in each mouse was calculated. In vivo efficacy was calculated as the difference of the log10 CFU/lung values between the treated mice at 24 h and the pre-treatment (control) at 0 h (Δlog10 CFU/lung = log10 [treated] CFU/lung − log10 [pre-treatment] CFU/lung).

[2] = system: K. pneumoniae FADDI-KP132 (mcr-1 positive); test: as above; type: in vivo; details: for Tukey HSD diff, Pre-treatment minus treated group (Log10 CFU/lung) / Tukey HSD diff, Vehicle minus treated group (Log10 CFU/lung): Fig. f; for Log10 CFU/lung: Figure 3f, individual mice
Experimental: as §1

[3] = system: P. aeruginosa FADDI-PA102; test: as above; type: in vivo; details: for Tukey HSD diff, Pre-treatment minus treated group (Log10 CFU/lung) / Tukey HSD diff, Vehicle minus treated group (Log10 CFU/lung): Fig. d; for Log10 CFU/lung: Figure 3d, individual mice
Experimental: as §1

[4] = system: A. baumannii FADDI-AB156; test: MIC, polymyxin-resistant isolate; type: cell-based, Acinetobacter baumannii; details: carbapenem-resistant
Experimental: MICs were determined in cation-adjusted Mueller–Hinton broth (CaMHB) by the broth micro-dilution method against ATCC strains and clinical isolates. MICs in the presence of Survanta® were determined as described above against P. aeruginosa ATCC 27853. In the 100 μL of fresh CaMHB containing polymyxins, 10% Survanta® (v/v, 2.5 mg/mL phospholipids) was added. MICs in the presence and absence of Survanta® were compared to determine the effect of binding to lung surfactant on the antibacterial activity of polymyxins.

[5] = system: K. pneumoniae FADDI-KP027; type: cell-based, Klebsiella pneumoniae
Outline: (§2)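 Broth microdilution, CaMHB; MIC read as the antibacterial endpoint against ATCC reference strains and clinical isolates.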

[6] = system: K. pneumoniae Kp MKP103; type: cell-based, Klebsiella pneumoniae; details: polymyxin-resistant
Outline: as §2

[7] = system: P. aeruginosa PAM1626; test: Efflux inhibition assay (Leu-Nap hydrolysis), efflux-deficient strain; type: cell-based, Pseudomonas aeruginosa
Experimental: Bacterial strains were seeded in 50 mL of Luria-Bertani (LB) broth at OD600 0.05 and grown at 37 °C for 3-4 h until an OD600 of 0.6–0.8 was achieved. Bacterial cells were washed twice with 25 mL of buffer (50 mM sodium phosphate, 0.5% glucose, pH 7, with or without 1 mM Mg^2+), resuspended in 10 mL of the buffer, and then adjusted to an OD600 of 0.4. […] Bacterial suspension (50 μL, OD600 0.4) in buffer was added to the lipopeptide solutions and the rate of substrate hydrolysis was measured at 490 nm.
Activity of F365 and polymyxin B in the efflux inhibition assay.
One of the consequences of disruption/permeabilization of the cytoplasmic membrane by polymyxins is the dissipation of the proton gradient across the cytoplasmic membrane. […]
these compounds are expected to inhibit proton-dependent transport activity across the cytoplasmic membrane including efflux. Efflux activity and its inhibition by F365 was assessed by examining the rates of hydrolysis of a fluorogenic substrate of efflux pumps, Leu-Nap, by intact cells of P. aeruginosa. For these experiments we used two strains of P. aeruginosa, PAM1723 and PAM1626. PAM1723 overexpresses the efflux pump MexAB-OprM and PAM1626 lacks this pump as well as several other pumps that extrude Leu-Nap. […] The rate of production of β-naphthylamine (recorded as an increase in fluorescence) is limited by the rate of entry of Leu-Nap into the cells. […]

CC[C@@H]1NC(=O)[C@@H](CC(C)C)NC(=O)[C@H](CCN)NC(=O)[C@@H](NC(=O)[C@H](CN)NC(=O)[C@@H](NC(=O)[C@H](CCN)NC(=O)c2ccc(Cl)cc2Cl)[C@@H](C)O)CCNC(=O)[C@H]([C@@H](C)O)NC(=O)[C@H](CCN)NC(=O)[C@H](CCN)NC1=O [Lipopeptide F365] (HELM PEPTIDE1{[O=C(c1ccc(Cl)cc1Cl)[*:2]].[Dab].T.[NC[C@H](N[*:1])C(=O)[*:2]].[Dab].[Dab].[dL].[Abu].[Dab].[Dab].T}$PEPTIDE1,PEPTIDE1,5:R3-11:R2$$$V2.0)
Tukey HSD diff, Pre-treatment minus treated group (Log10 CFU/lung) ([1]; 120mg/kg/d): 2.4325
Tukey HSD diff, Vehicle minus treated group (Log10 CFU/lung) ([1]; 120mg/kg/d): 3.826
Tukey HSD diff, Pre-treatment minus treated group (Log10 CFU/lung) ([1]; 240mg/kg/d): 4.209
Tukey HSD diff, Vehicle minus treated group (Log10 CFU/lung) ([1]; 240mg/kg/d): 5.603
Log10 CFU/lung ([1]; 120mg/kg/d): 4.13 Log10 CFU/lung and 5.08 Log10 CFU/lung and 3.12 Log10 CFU/lung
Log10 CFU/lung ([1]; 240mg/kg/d): 1.94 Log10 CFU/lung and 2.42 Log10 CFU/lung and 2.64 Log10 CFU/lung
reduction in CFU/lung ([2]; 240 mg/kg/d subcutaneously, 24 h, maximum over the polymyxin-resistant isolates): up to 4.65 log10 CFU/lung
Tukey HSD diff, Pre-treatment minus treated group (Log10 CFU/lung) ([2]; 120mg/kg/d): 1.795
Tukey HSD diff, Vehicle minus treated group (Log10 CFU/lung) ([2]; 120mg/kg/d): 4.6875
Tukey HSD diff, Pre-treatment minus treated group (Log10 CFU/lung) ([2]; 240mg/kg/d): 4.6475
Tukey HSD diff, Vehicle minus treated group (Log10 CFU/lung) ([2]; 240mg/kg/d): 7.54
Log10 CFU/lung ([2]; 120mg/kg/d): 4.02 Log10 CFU/lung and 5.39 Log10 CFU/lung and 2.64 Log10 CFU/lung and 2.94 Log10 CFU/lung
Log10 CFU/lung ([2]; 240mg/kg/d): 0.00 Log10 CFU/lung (2×) and 1.64 Log10 CFU/lung and 1.94 Log10 CFU/lung
Tukey HSD diff, Pre-treatment minus treated group (Log10 CFU/lung) ([3]; 120mg/kg/d): 0.69
Tukey HSD diff, Vehicle minus treated group (Log10 CFU/lung) ([3]; 120mg/kg/d): 1.074
Tukey HSD diff, Pre-treatment minus treated group (Log10 CFU/lung) ([3]; 240mg/kg/d): 3.307
Tukey HSD diff, Vehicle minus treated group (Log10 CFU/lung) ([3]; 240mg/kg/d): 3.691
Log10 CFU/lung ([3]; 120mg/kg/d): 6.56 Log10 CFU/lung and 6.03 Log10 CFU/lung and 7.00 Log10 CFU/lung
Log10 CFU/lung ([3]; 240mg/kg/d): 4.07 Log10 CFU/lung and 3.82 Log10 CFU/lung and 3.85 Log10 CFU/lung
MIC A. baumannii FADDI-AB156 [4]: 4 µg/mL (≈ 3.45 µM)
MIC K. pneumoniae FADDI-KP027 ([5]; FADDI-KP027): > 32 µg/mL
MIC K. pneumoniae Kp MKP103 [6]: 8 µg/mL (≈ 6.9 µM)
effect on the rate of Leu-Nap hydrolysis [7]: no effect

Polymyxin B [reference compound]
Tukey HSD diff, Pre-treatment minus treated group (Log10 CFU/lung) ([1]; 90mg/kg/d): -1.5075
Tukey HSD diff, Vehicle minus treated group (Log10 CFU/lung) ([1]; 90mg/kg/d): -0.114
Log10 CFU/lung ([1]; 90mg/kg/d): 8.23 Log10 CFU/lung and 8.17 Log10 CFU/lung and 7.75 Log10 CFU/lung
Tukey HSD diff, Pre-treatment minus treated group (Log10 CFU/lung) ([2]; 90mg/kg/d): -1.82
Tukey HSD diff, Vehicle minus treated group (Log10 CFU/lung) ([2]; 90mg/kg/d): 1.0725
Log10 CFU/lung ([2]; 90mg/kg/d): 7.88 Log10 CFU/lung and 8.02 Log10 CFU/lung and 6.98 Log10 CFU/lung and 6.57 Log10 CFU/lung
Tukey HSD diff, Pre-treatment minus treated group (Log10 CFU/lung) ([3]; 90mg/kg/d): -0.1967
Tukey HSD diff, Vehicle minus treated group (Log10 CFU/lung) ([3]; 90mg/kg/d): 0.1873
Log10 CFU/lung ([3]; 90mg/kg/d): 7.28 Log10 CFU/lung and 7.23 Log10 CFU/lung and 7.74 Log10 CFU/lung
MIC A. baumannii FADDI-AB156 [4]: 8 µg/mL
MIC K. pneumoniae FADDI-KP027 ([5]; polymyxin-resistant): > 32 µg/mL
MIC K. pneumoniae Kp MKP103 [6]: 16 µg/mL
effect on the rate of Leu-Nap hydrolysis [7]: no effect
